According to ChEMBL document CHEMBL1201862, “PubChem BioAssay data set” (2004):
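Method: 48-hour compound exposure of cells in 96-well plates, five concentrations, linear interpolation of endpoints. Here, GI50 denotes the concentration required for 50% inhibition of growth.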 Active and inactive are the calls of the source. No stated cut-off is given here; in the data, active = GI50 up to about 1.1 µM and inactive = higher.

What was measured:
Test in all cases: NCI anticancer screen, dose series, 48 h
786-0 = test system: 786-0
DU-145 = test system: DU-145
EKVX = test system: EKVX
HCT-15 = test system: HCT-15
K562 = test system: K562
LOX IMVI = test system: LOX IMVI
NCI-H460 = test system: NCI-H460
OVCAR-4 = test system: OVCAR-4
OVCAR-5 = test system: OVCAR-5
SF-268 = test system: SF-268
SF-295 = test system: SF-295
SK-MEL-5 = test system: SK-MEL-5
T47D = test system: T47D
TK-10 = test system: TK-10
UACC-257 = test system: UACC-257
UACC-62 = test system: UACC-62
MOLT-4 = test system: MOLT-4
CCRF-CEM = test system: CCRF-CEM
HCC 2998 = test system: HCC 2998

Compound	GI50 (786-0)	GI50 (DU-145)	GI50 (EKVX)	GI50 (HCT-15) [µM]	GI50 (K562)	GI50 (LOX IMVI)	GI50 (NCI-H460)	GI50 (OVCAR-4)	GI50 (OVCAR-5)	GI50 (SF-268)	GI50 (SF-295)	GI50 (SK-MEL-5)	GI50 (T47D)	GI50 (TK-10)	GI50 (UACC-257)	GI50 (UACC-62)	GI50 (MOLT-4)	GI50 (CCRF-CEM)	GI50 (HCC 2998)
CN(C)CCCNc1cc(O)c2c(c1O)C(=O)c1ccccc1C2=O	7.67 µM (inactive)	14.8 µM (inactive)	15 µM (inactive)	5.26	2.79 µM (inactive)	9.53 µM (inactive)	6.46 µM (inactive)	12.1 µM (inactive)	18.9 µM (inactive)	16.8 µM (inactive)	13.1 µM (inactive)	13.2 µM (inactive)	19 µM (inactive)	10.2 µM (inactive)	13.6 µM (inactive)	18.4 µM (inactive)	–	–	–
c1cncc(CNCCN2CCNCC2)c1	> 100 µM (inactive)	–	> 100 µM (inactive)	> 100	> 100 µM (inactive)	> 100 µM (inactive)	> 100 µM (inactive)	> 100 µM (inactive)	> 100 µM (inactive)	> 100 µM (inactive)	> 100 µM (inactive)	> 100 µM (inactive)	> 100 µM (inactive)	> 100 µM (inactive)	> 100 µM (inactive)	> 100 µM (inactive)	> 100 µM (inactive)	–	–
CC(=O)O[C@]12CCCCCC1C1(O)C(O)CCC[C@H]12 (some centres undefined)	> 100 µM (inactive)	–	> 100 µM (inactive)	> 100	> 100 µM (inactive)	> 100 µM (inactive)	> 100 µM (inactive)	> 100 µM (inactive)	–	> 100 µM (inactive)	> 100 µM (inactive)	> 100 µM (inactive)	–	> 100 µM (inactive)	> 100 µM (inactive)	> 100 µM (inactive)	> 100 µM (inactive)	> 100 µM (inactive)	–
CC(C)(C)OC(=O)N1CC(COS(C)(=O)=O)c2ccc(O)cc21 (centres undefined)	2.59 µM (inactive)	0.507 µM (active)	2.23 µM (inactive)	2.46	2.3 µM (inactive)	–	2.14 µM (inactive)	1.18 µM (inactive)	2.12 µM (inactive)	1.72 µM (inactive)	2.91 µM (inactive)	1.51 µM (inactive)	3.05 µM (inactive)	3.37 µM (inactive)	2.29 µM (inactive)	1.73 µM (inactive)	0.443 µM (active)	0.455 µM (active)	0.133 µM (active)
O[C@@]12Cc3c([nH]c4ccccc34)[C@@H]3Oc4c(-c5ccccc5)ccc5c4[C@@]31CCN(CC1CC1)[C@@H]2C5	1.65 µM (inactive)	–	2.01 µM (inactive)	1.95	2.33 µM (inactive)	1.89 µM (inactive)	1.72 µM (inactive)	2.71 µM (inactive)	4.11 µM (inactive)	3.42 µM (inactive)	1.69 µM (inactive)	1.83 µM (inactive)	2 µM (inactive)	–	1.84 µM (inactive)	1.8 µM (inactive)	3.07 µM (inactive)	2.92 µM (inactive)	1.57 µM (inactive)
Cn1c(=O)oc2cc(C(=O)CSC(=S)N3CCCCCC3)ccc21	> 100 µM (inactive)	> 100 µM (inactive)	> 100 µM (inactive)	81.1	57.1 µM (inactive)	–	52.7 µM (inactive)	> 100 µM (inactive)	> 100 µM (inactive)	> 100 µM (inactive)	87.9 µM (inactive)	> 100 µM (inactive)	86.7 µM (inactive)	> 100 µM (inactive)	> 100 µM (inactive)	> 100 µM (inactive)	41.3 µM (inactive)	75.5 µM (inactive)	78.7 µM (inactive)
O=c1c2c(c1=O)C1(SCCCS1)c1cc(Cl)ccc1O2	> 100 µM (inactive)	> 100 µM (inactive)	> 100 µM (inactive)	> 100	> 100 µM (inactive)	> 100 µM (inactive)	> 100 µM (inactive)	> 100 µM (inactive)	> 100 µM (inactive)	> 100 µM (inactive)	> 100 µM (inactive)	> 100 µM (inactive)	–	> 100 µM (inactive)	> 100 µM (inactive)	> 100 µM (inactive)	> 100 µM (inactive)	> 100 µM (inactive)	> 100 µM (inactive)
OC1CN2Cc3cc4c(cc3[C@]13C=C[C@@H](O)CC23)OCO4 (some centres undefined)	20.9 µM (inactive)	8.69 µM (inactive)	15.4 µM (inactive)	30.3	23.7 µM (inactive)	30 µM (inactive)	14.4 µM (inactive)	19.8 µM (inactive)	23.9 µM (inactive)	29.3 µM (inactive)	33.6 µM (inactive)	22.9 µM (inactive)	4.82 µM (inactive)	23.2 µM (inactive)	7.89 µM (inactive)	33 µM (inactive)	16.6 µM (inactive)	8.57 µM (inactive)	–
CCCCNC(=S)N/C=C1\C(=O)Nc2ccccc2C1=O	> 10 µM (inactive)	–	> 10 µM (inactive)	> 10	> 10 µM (inactive)	–	> 10 µM (inactive)	> 10 µM (inactive)	> 10 µM (inactive)	> 10 µM (inactive)	> 10 µM (inactive)	–	> 10 µM (inactive)	> 10 µM (inactive)	> 10 µM (inactive)	> 10 µM (inactive)	> 10 µM (inactive)	> 10 µM (inactive)	> 10 µM (inactive)
O=C(c1ccccc1)n1c2ccc(Br)cc2c2nc3ccccc3nc21	37.8 µM (inactive)	> 100 µM (inactive)	> 100 µM (inactive)	> 100	72.8 µM (inactive)	> 100 µM (inactive)	71 µM (inactive)	48.6 µM (inactive)	> 100 µM (inactive)	> 100 µM (inactive)	> 100 µM (inactive)	> 100 µM (inactive)	–	> 100 µM (inactive)	> 100 µM (inactive)	> 100 µM (inactive)	46.9 µM (inactive)	58.9 µM (inactive)	> 100 µM (inactive)
Cc1c2c(n3c(nc4ccccc43)c1C#N)N(c1ccc(Cl)cc1)CC2	> 100 µM (inactive)	> 100 µM (inactive)	> 100 µM (inactive)	> 100	> 100 µM (inactive)	> 100 µM (inactive)	> 100 µM (inactive)	> 100 µM (inactive)	> 100 µM (inactive)	> 100 µM (inactive)	> 100 µM (inactive)	> 100 µM (inactive)	–	> 100 µM (inactive)	> 100 µM (inactive)	> 100 µM (inactive)	–	> 100 µM (inactive)	> 100 µM (inactive)
Cc1c(S(=O)(=O)c2ccccc2)c(N)n(Cc2ccccc2)c1C	> 100 µM (inactive)	> 100 µM (inactive)	> 100 µM (inactive)	> 100	> 100 µM (inactive)	–	> 100 µM (inactive)	85.7 µM (inactive)	> 100 µM (inactive)	80.5 µM (inactive)	> 100 µM (inactive)	> 100 µM (inactive)	–	> 100 µM (inactive)	> 100 µM (inactive)	> 100 µM (inactive)	> 100 µM (inactive)	> 100 µM (inactive)	> 100 µM (inactive)
CON(C)C(=O)[C@H]1C[C@@]1(C)CO	> 100 µM (inactive)	> 100 µM (inactive)	> 100 µM (inactive)	> 100	> 100 µM (inactive)	–	> 100 µM (inactive)	> 100 µM (inactive)	> 100 µM (inactive)	> 100 µM (inactive)	> 100 µM (inactive)	> 100 µM (inactive)	> 100 µM (inactive)	> 100 µM (inactive)	> 100 µM (inactive)	> 100 µM (inactive)	> 100 µM (inactive)	> 100 µM (inactive)	> 100 µM (inactive)
Cc1csc2nc3[nH]ncc3c(=O)n12	> 100 µM (inactive)	–	> 100 µM (inactive)	> 100	> 100 µM (inactive)	> 100 µM (inactive)	> 100 µM (inactive)	> 100 µM (inactive)	> 100 µM (inactive)	> 100 µM (inactive)	> 100 µM (inactive)	> 100 µM (inactive)	> 100 µM (inactive)	–	> 100 µM (inactive)	> 100 µM (inactive)	> 100 µM (inactive)	> 100 µM (inactive)	> 100 µM (inactive)
CON(C)C(=O)C(C)NC(=O)OC(C)(C)C (centres undefined)	> 100 µM (inactive)	> 100 µM (inactive)	> 100 µM (inactive)	> 100	> 100 µM (inactive)	–	> 100 µM (inactive)	–	> 100 µM (inactive)	> 100 µM (inactive)	> 100 µM (inactive)	> 100 µM (inactive)	> 100 µM (inactive)	> 100 µM (inactive)	> 100 µM (inactive)	> 100 µM (inactive)	> 100 µM (inactive)	> 100 µM (inactive)	> 100 µM (inactive)
C[n+]1c(-c2ccc(/C=N\NC(=O)c3ccc(C(=O)N/N=C/c4ccc(-c5cn6ccsc6[n+]5C)cc4)cc3)cc2)cn2ccsc21	16.6 µM (inactive)	18.5 µM (inactive)	15.8 µM (inactive)	16	14 µM (inactive)	–	19.4 µM (inactive)	28.8 µM (inactive)	17.3 µM (inactive)	–	–	16.5 µM (inactive)	–	19.9 µM (inactive)	21.7 µM (inactive)	20 µM (inactive)	15.2 µM (inactive)	25.4 µM (inactive)	34 µM (inactive)
NCCCCN(CCCN)C(=O)OCc1ccccc1	> 100 µM (inactive)	> 100 µM (inactive)	> 100 µM (inactive)	> 100	> 100 µM (inactive)	–	> 100 µM (inactive)	> 100 µM (inactive)	> 100 µM (inactive)	> 100 µM (inactive)	> 100 µM (inactive)	> 100 µM (inactive)	> 100 µM (inactive)	> 100 µM (inactive)	> 100 µM (inactive)	> 100 µM (inactive)	> 100 µM (inactive)	> 100 µM (inactive)	> 100 µM (inactive)
